Data set [1] relates to Fibroblast growth factor receptor 3 (Homo sapiens), P22607 [V555M]. The data set is described as follows: Inhibition of FGFR3 V555M mutant (unknown origin) at 10 uM by radiometric kinase activity assay relative to control.
For data set [2], the target named is Fibroblast growth factor receptor 3 (Homo sapiens, UniProt P22607). The experiment in a line: Inhibition of wild-type FGFR3 (unknown origin) by radiometric kinase activity assay.
In data set [3] the test system is KMS-11. The data set is described as follows: Antiproliferative activity against human KMS-11 cells harboring FGFR3 Y373C mutant assessed as cell growth inhibition by CellTiter-Glo assay. It is filed as functional. On the technique in general: ATP-based viability assays read luminescence as a measure of living cells.
The subject of data set [4] is J82. The data set is described as follows: Antiproliferative activity against human J82 cells harboring FGFR3 K652E mutant assessed as cell growth inhibition by CellTiter-Glo assay. It is filed as functional.
For data set [5], the system named is BaF3. The data set is described as follows: cells. It is filed as functional. Particulars: Mus musculus.
In data set [6] the test system is Fibroblast growth factor receptor 2 (Homo sapiens), P21802 [V564F]. The data set is described as follows: Inhibition of FGFR2 V564F mutant (unknown origin) at 10 uM by radiometric kinase activity assay relative to control.
Data set [7] deals with BaF3. The data set is described as follows: Antiproliferative activity against mouse BaF3 cells harboring TEL-FGFR3 assessed as cell growth inhibition by CellTiter-Glo assay. It counts as functional.
The nature of data set [8]: Antiproliferative activity against mouse BaF3 cells assessed as cell growth inhibition by CellTiter-Glo assay.
Data set [9] addresses Fibroblast growth factor receptor 2 (Homo sapiens, UniProt P21802, N549H).
The test system of data set [10] is AN3-CA. The data set is described as follows: Antiproliferative activity against human AN3-CA cells harboring FGFR2 K310R/N549K mutant assessed as cell growth inhibition by CellTiter-Glo assay. It is filed as functional.
Data set [11] has as its target Fibroblast growth factor receptor 3 (Homo sapiens, UniProt P22607, V555M).
The target of data set [12] is Fibroblast growth factor receptor 2 (Homo sapiens, UniProt P21802, V564F).
Description: Inhibition of FGFR2 V564F mutant (unknown origin) by radiometric kinase activity assay
For data set [13], the system named is BaF3. The experiment in a line: Antiproliferative activity against mouse BaF3 cells harboring TEL-FGFR4 N535K mutant assessed as cell growth inhibition by CellTiter-Glo assay. It is filed as functional.
In data set [14] the test system is BaF3. The data set is described as follows: Antiproliferative activity against mouse BaF3 cells harboring TEL-FGFR4 V550E mutant assessed as cell growth inhibition by CellTiter-Glo assay. It counts as functional.
Data set [15] has as its target Fibroblast growth factor receptor 2 (Homo sapiens, UniProt P21802). The data set is described as follows: Inhibition of wild-type FGFR2 (unknown origin) by radiometric kinase activity assay.
The target in data set [16] is Fibroblast growth factor receptor 4 (Homo sapiens, UniProt P22455). The experiment in a line: Inhibition of wild-type FGFR4 (unknown origin) by radiometric kinase activity assay.
Data set [17] deals with Fibroblast growth factor receptor 3 (Homo sapiens, UniProt P22607, K650E).
Sequence of Fibroblast growth factor receptor 3 (Homo sapiens, UniProt P22607, K650E) (P22607 23-806 K650E limits assumed): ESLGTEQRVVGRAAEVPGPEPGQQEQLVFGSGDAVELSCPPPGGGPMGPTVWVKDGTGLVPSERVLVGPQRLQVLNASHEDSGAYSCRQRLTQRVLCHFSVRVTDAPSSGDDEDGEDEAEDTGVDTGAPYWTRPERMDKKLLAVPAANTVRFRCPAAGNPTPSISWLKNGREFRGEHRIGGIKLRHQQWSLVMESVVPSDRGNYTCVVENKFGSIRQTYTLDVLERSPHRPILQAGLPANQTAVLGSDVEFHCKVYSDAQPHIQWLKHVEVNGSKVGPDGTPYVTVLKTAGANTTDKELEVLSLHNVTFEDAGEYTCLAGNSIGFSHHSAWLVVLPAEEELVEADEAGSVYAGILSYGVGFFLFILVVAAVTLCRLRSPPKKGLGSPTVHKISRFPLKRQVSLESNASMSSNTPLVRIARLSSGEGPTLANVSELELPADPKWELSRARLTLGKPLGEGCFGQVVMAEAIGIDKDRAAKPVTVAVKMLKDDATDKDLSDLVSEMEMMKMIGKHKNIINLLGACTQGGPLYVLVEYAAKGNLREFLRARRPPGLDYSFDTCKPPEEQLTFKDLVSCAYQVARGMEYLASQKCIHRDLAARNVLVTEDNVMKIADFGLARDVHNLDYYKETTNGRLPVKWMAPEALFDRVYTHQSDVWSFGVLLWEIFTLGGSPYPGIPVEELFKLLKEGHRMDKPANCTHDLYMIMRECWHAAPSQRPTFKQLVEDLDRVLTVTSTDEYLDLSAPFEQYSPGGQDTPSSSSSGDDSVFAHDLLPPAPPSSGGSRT

Sequence of Fibroblast growth factor receptor 3 (Homo sapiens), P22607 [V555M] (P22607 whole entry V555M): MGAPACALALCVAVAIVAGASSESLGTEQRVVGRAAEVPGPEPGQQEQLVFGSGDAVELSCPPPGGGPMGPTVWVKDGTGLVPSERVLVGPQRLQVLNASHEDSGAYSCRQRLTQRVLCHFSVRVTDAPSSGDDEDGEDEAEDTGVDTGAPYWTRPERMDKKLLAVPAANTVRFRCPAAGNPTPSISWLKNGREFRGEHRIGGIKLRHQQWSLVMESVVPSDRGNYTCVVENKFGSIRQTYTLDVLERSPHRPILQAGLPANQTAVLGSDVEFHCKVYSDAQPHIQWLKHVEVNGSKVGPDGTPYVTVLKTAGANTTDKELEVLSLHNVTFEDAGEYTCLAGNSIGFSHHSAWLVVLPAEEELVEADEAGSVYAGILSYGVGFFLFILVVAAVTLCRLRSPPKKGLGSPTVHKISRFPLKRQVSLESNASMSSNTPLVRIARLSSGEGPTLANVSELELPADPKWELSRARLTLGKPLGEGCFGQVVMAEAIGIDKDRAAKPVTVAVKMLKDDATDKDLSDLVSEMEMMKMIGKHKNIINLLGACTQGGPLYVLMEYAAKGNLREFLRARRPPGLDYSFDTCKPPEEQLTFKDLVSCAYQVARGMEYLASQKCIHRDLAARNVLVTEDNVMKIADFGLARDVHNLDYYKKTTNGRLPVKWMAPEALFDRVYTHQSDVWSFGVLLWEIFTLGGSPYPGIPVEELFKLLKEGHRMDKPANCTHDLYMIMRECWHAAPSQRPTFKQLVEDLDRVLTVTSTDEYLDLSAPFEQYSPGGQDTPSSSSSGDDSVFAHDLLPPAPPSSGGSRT
Sequence of Fibroblast growth factor receptor 2 (Homo sapiens), P21802 [V564F] (P21802 whole entry V564F): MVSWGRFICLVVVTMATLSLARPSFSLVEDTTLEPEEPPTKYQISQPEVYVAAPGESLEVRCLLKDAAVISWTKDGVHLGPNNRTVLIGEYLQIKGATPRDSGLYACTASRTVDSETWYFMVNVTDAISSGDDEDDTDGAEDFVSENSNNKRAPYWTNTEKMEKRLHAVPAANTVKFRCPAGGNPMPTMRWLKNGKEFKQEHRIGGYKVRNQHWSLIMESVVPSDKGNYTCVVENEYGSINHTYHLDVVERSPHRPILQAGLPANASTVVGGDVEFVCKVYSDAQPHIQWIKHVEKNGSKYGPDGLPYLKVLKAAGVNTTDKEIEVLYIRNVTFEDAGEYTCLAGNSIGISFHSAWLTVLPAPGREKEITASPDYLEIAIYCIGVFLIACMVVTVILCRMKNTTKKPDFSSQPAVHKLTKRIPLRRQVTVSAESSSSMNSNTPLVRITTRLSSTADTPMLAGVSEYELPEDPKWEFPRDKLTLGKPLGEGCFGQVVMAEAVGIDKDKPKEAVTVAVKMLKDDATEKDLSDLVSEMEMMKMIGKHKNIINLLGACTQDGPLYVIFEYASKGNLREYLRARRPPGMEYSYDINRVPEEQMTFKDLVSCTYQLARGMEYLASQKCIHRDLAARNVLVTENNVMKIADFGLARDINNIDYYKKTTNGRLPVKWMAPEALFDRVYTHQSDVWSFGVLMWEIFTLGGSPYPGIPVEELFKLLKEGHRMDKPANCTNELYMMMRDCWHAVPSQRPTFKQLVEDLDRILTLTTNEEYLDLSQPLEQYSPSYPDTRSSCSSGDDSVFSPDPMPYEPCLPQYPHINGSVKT
Sequence of Fibroblast growth factor receptor 3 (Homo sapiens, UniProt P22607) (P22607 whole entry): as the sequence (P22607 whole entry V555M) above, with M555V counted along it
Sequence of Fibroblast growth factor receptor 3 (Homo sapiens, UniProt P22607, V555M) (P22607 23-806 V555M limits assumed): as the sequence (P22607 23-806 K650E limits assumed) above, with V533M, E628K counted along it
Sequence of Fibroblast growth factor receptor 2 (Homo sapiens, UniProt P21802, V564F) (P21802 22-821 V564F limits assumed): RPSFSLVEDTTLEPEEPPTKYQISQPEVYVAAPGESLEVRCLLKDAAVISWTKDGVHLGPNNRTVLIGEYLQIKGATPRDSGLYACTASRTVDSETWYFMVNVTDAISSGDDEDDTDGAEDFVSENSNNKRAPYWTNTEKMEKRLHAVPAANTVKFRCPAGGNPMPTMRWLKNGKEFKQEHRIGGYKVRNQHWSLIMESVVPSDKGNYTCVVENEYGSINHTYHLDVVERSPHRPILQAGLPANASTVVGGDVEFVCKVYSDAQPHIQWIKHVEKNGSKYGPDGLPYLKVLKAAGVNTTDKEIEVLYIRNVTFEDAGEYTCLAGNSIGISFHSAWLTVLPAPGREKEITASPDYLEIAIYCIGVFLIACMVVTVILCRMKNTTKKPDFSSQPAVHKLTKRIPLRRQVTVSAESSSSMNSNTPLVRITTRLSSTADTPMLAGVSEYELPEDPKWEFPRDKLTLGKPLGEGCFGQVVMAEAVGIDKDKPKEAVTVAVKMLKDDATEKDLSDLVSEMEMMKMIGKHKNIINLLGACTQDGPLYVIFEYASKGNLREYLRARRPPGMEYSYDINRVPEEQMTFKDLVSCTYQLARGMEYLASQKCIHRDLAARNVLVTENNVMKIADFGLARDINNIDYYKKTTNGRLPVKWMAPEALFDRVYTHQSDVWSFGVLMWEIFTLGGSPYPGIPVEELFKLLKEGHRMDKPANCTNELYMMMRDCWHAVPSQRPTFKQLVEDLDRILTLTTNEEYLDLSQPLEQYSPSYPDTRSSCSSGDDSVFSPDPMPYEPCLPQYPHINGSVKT
Sequence of Fibroblast growth factor receptor 2 (Homo sapiens, UniProt P21802, N549H) (P21802 22-821 N549H limits assumed): as the sequence (P21802 22-821 V564F limits assumed) above, with N528H, F543V counted along it
Sequence of Fibroblast growth factor receptor 2 (Homo sapiens, UniProt P21802) (P21802 whole entry): as the sequence (P21802 whole entry V564F) above, with F564V counted along it
Sequence of Fibroblast growth factor receptor 4 (P22455 whole entry): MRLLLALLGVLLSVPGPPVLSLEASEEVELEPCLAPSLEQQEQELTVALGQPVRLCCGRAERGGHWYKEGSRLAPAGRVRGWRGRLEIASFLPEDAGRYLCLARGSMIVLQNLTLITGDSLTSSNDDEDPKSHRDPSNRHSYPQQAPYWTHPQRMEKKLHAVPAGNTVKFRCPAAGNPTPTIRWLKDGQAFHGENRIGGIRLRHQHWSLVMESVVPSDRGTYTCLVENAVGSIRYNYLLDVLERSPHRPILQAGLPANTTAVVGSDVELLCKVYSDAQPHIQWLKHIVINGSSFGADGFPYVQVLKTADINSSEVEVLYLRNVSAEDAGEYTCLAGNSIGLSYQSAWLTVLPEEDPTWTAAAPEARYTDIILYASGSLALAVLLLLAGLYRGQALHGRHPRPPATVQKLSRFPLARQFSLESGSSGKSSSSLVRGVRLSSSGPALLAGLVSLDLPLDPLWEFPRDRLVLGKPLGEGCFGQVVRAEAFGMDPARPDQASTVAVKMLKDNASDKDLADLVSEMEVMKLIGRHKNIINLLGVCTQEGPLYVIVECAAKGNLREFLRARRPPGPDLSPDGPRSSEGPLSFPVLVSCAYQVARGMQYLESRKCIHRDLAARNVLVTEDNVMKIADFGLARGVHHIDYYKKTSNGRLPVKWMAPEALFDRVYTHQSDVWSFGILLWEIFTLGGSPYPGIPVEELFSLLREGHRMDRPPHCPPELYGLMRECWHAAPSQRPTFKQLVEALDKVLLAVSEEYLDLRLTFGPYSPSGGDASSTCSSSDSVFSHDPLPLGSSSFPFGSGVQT

By inhibition is commonly meant the drop in the measured response relative to a control, in per cent. Lower therefore signals little suppression. One may read the IC50 as the midpoint of a concentration-inhibition curve. One may read the GI50 as the concentration giving 50% growth inhibition. In the case of `COc1cc(OC)c(Cl)c(Nc2ncccc2-c2ncnc(Nc3ccccc3)n2)c1Cl`, the inhibition in data set [1] and in data set [6] was below 50% each time. Besides, the results for the IC50 in data set [2] and in [9] were 4.58 nM and 2.51 nM, respectively. The GI50 in [3] is 1420 nM; in [4] it was 3.62 µM; in [5], above 5000 nM; in data set [7], 16 nM; in data set [8] (BaF3 cells), above 5 µM; in data set [10], 136 nM.

As to `COc1cc(OC)c(Cl)c(Nc2ncccc2-c2ncnc(Nc3cnn(C4CCOCC4)c3)n2)c1Cl`, the IC50 in data set [2] is 2.51 nM; in data set [11], 1170 nM; in [12] it was 2770 nM; in [9], 13.8 nM. Moreover, the GI50 in [3] was 1380 nM; in data set [4], 6.23 µM; in data set [5], 3160 nM; in data set [7], 5 nM; in data set [8] (BaF3 cells), above 5 µM; in [10] it was 105 nM.

`COc1cc(N2CCN(C)CC2)ccc1Nc1ncnc(-c2cccnc2Nc2c(Cl)c(OC)cc(OC)c2Cl)n1`: the half-maximal inhibitory concentration (IC50) in data set [2] amounted to 20.3 nM; in data set [11], 7750 nM; in data set [12], 2640 nM; in [9], 75.3 nM. Besides, the GI50 in data set [3] came out at 730 nM; in data set [4], 7.26 µM; in data set [5] it was 2130 nM; in [7], 282 nM; in data set [8] (BaF3 cells), 2.79 µM; in [10], 689 nM.

Take `CCN1C(=O)N(c2c(F)c(OC)cc(OC)c2F)Cc2cnc3[nH]c(CN4CCOCC4)cc3c21` [PEMIGATINIB]: the GI50 in [3] was 232 nM; in data set [4] it was 4.29 µM; in [13] it was 4.5 µM; in [5], 2070 nM; in data set [7], 5 nM; in data set [8] (BaF3 cells), above 5 µM. Besides, the GI50 is above 5 µM in data set [14] and 132 nM in [10].

For the compound `COc1cccc(Nc2ncnc(-c3cccnc3Nc3c(Cl)c(OC)cc(OC)c3Cl)n2)c1`, the inhibition in data set [1] and in data set [6] was below 50% each time. The results for the IC50 in data set [2] and in [9] were 9.81 nM and 6.36 nM, respectively. Further, the GI50 was 895 nM in [3]; 4.88 µM in data set [4]; above 5000 nM in data set [5]; 30 nM in data set [7]; above 5 µM in data set [8] (BaF3 cells); 202 nM in [10].

Consider `C=CCn1cc(Nc2ncnc(-c3cccnc3Nc3c(Cl)c(OC)cc(OC)c3Cl)n2)cn1`, for which the half-maximal inhibitory concentration (IC50) in data set [2] is 1.41 nM; in data set [11] it was 1710 nM; in data set [12], 3090 nM; in [9] it was 26 nM. For the same compound, the GI50 is 341 nM in [3]; 0.991 µM in data set [4]; 1820 nM in [5]; 10 nM in [7]; above 5 µM in data set [8] (BaF3 cells); 18800 nM in data set [10].

For `COc1cc(OC)c(Cl)c(Nc2ncccc2-c2ncnc(Nc3ccc(N4CCOCC4)cc3)n2)c1Cl`, the inhibition in data set [1] and in [6] was below 50% in each case. Besides, the half-inhibitory concentration (IC50) in data set [2] amounted to 16 nM; in data set [9] it was 37.7 nM. In addition, the GI50 in data set [3] is 12200 nM; in [4], 22.4 µM; in data set [5] it was above 5000 nM; in data set [7], 393 nM; in data set [8] (BaF3 cells), above 5 µM; in data set [10], 1130 nM.

Consider `COc1cc(OC)c(Cl)c(Nc2ncccc2-c2ncnc(Nc3ccc(N4CCN(C(C)=O)CC4)cc3)n2)c1Cl`, for which the IC50 in [2] is 8.05 nM; in [11], 1120 nM; in data set [12] it was 3010 nM; in data set [9] it was 4.49 nM. Besides, the GI50 in data set [3] is 1500 nM; in data set [4], 6.01 µM; in data set [5] it was 3020 nM; in data set [7], 30 nM; in [8] (BaF3 cells), above 5 µM; in data set [10], 63 nM.

With `COc1cc(OC)c(Cl)c(Nc2ncccc2-c2ncnc(NCCN(C)C)n2)c1Cl`, the inhibition in data set [1] and in [6] was below 50% each time. Further, the IC50 turned out to be 839 nM in data set [2] and 368 nM in [9]. For the same compound, the GI50 in data set [3] is 3570 nM; in data set [4], 11.2 µM; in data set [5], above 5000 nM; in [7], 4040 nM; in data set [8] (BaF3 cells), above 5 µM; in [10], 1940 nM.

In the case of `COc1cc(OC)c(Cl)c(Nc2ncccc2-c2ncnc(Nc3ccc(N4CCC(O)CC4)cc3)n2)c1Cl`, the IC50 in [2] stood at 8.29 nM; in data set [11], 1810 nM; in data set [12], 2160 nM; in data set [9], 6.05 nM. Moreover, the GI50 in [3] is 1270 nM; in data set [4], 8.25 µM; in [5] it was 3880 nM; in [7], 40 nM; in data set [8] (BaF3 cells), above 5 µM; in [10], 117 nM.

With `CCN1CCN(c2ccc(Nc3cc(-c4cccnc4Nc4c(Cl)c(OC)cc(OC)c4Cl)ncn3)cc2)CC1`, the IC50 in [2] was found to be 2.86 nM; in [11], 464 nM; in data set [15] it was 1.83 nM; in data set [16], 50.3 nM; in [17] it was 8.55 nM; in [9] it was 6.06 nM. Besides, the GI50 in [3] is 479 nM; in data set [4], 4.29 µM; in data set [13] it was 3.37 µM; in data set [5], 2000 nM; in data set [7], 8 nM; in data set [8] (BaF3 cells), 3.25 µM. For the same compound, the values for the GI50 in data set [14] and in data set [10] were 3.2 µM and 263 nM, respectively.

As to `COc1cc(N2C[C@@H](C)N[C@@H](C)C2)ccc1Nc1ncnc(-c2cccnc2Nc2c(Cl)c(OC)cc(OC)c2Cl)n1`, the inhibition in [1] is below 50%. Besides, the 50% inhibitory concentration (IC50) in data set [2] is 23.9 nM; in data set [12] it was 3560 nM; in [9], 32.9 nM. The GI50 in data set [3] came to 872 nM; in data set [4] it was 3.33 µM; in data set [5], 2710 nM; in data set [7], 286 nM; in data set [8] (BaF3 cells) it was 2.73 µM; in data set [10], 818 nM.

`COc1cc(OC)c(Cl)c(Nc2ncccc2-c2ncnc(N)n2)c1Cl`: the inhibition in data set [1] and in [6] was below 50% in each case. The IC50 is 11.2 nM in [2] and 31.4 nM in data set [9]. The 50% growth inhibitory concentration (GI50) in [3] was 3270 nM; in [4], 6.56 µM; in [5] it was above 5000 nM; in data set [7] it was 276 nM; in [8] (BaF3 cells), above 5 µM; in data set [10], 753 nM.

For the compound `COc1cc(OC)c(Cl)c(Nc2ncccc2-c2ncnc(Nc3ccc(N(C)C)cc3)n2)c1Cl`, the inhibition in [1] and in data set [6] was below 50% throughout. For the same compound, the results for the 50% inhibitory concentration (IC50) in data set [2] and in [9] were 15 nM and 14.7 nM, respectively. Further, the concentration for 50% growth inhibition (GI50) in [3] is above 50000 nM; in data set [4] it was 14.8 µM; in data set [5], above 5000 nM; in data set [7], 164 nM; in data set [8] (BaF3 cells) it was above 5 µM; in data set [10], 591 nM.

With `COc1cc(OC)c(Cl)c(Nc2ncccc2-c2ncnc(Nc3cnn(CCCN(C)C)c3)n2)c1Cl`, the 50% inhibitory concentration (IC50) in [2] was 1.19 nM; in data set [11], 319 nM; in data set [12], 1110 nM; in data set [9], 3.96 nM. Also, the GI50 in data set [3] was 189 nM; in [4] it was 0.51 µM; in data set [5], 897 nM; in data set [7] it was 5 nM; in data set [8] (BaF3 cells), 2.73 µM; in data set [10], 421 nM.

For the compound `COc1cc(OC)c(Cl)c(Nc2ncccc2-c2ncnc(Nc3ccc(N4CCOCC4)nc3)n2)c1Cl`, the IC50 is 8.62 nM in data set [2], 4060 nM in data set [11] and 3.09 nM in data set [9]. The GI50 in data set [3] is 2020 nM; in data set [4], 11.5 µM; in data set [5], above 5000 nM; in [7] it was 664 nM; in data set [8] (BaF3 cells), above 5 µM; in data set [10], 781 nM. The same compound returned an inhibition in data set [6] below 50%.

Take `COc1cc(OC)cc(N(CCNC(C)C)c2ccc3ncc(-c4cnn(C)c4)nc3c2)c1` [ERDAFITINIB]: the GI50 was 390 nM in [3]; 3.8 µM in [4]; 4.01 µM in data set [13]; 761 nM in [5]; 5 nM in [7]; above 5 µM in data set [8] (baf3). The GI50 in data set [14] is above 5 µM; in data set [10] it was 48 nM.

As for `COc1cc(OC)c(Cl)c(Nc2ncccc2-c2ncnc(Nc3cnn(C)c3)n2)c1Cl`, the IC50 was 2.41 nM in data set [2], 163 nM in data set [11], 2840 nM in [12] and below 0.5 nM in data set [9]. Also, the GI50 in data set [3] is 315 nM; in data set [4], 2.32 µM; in data set [5], 731 nM; in [7] it was 5 nM; in [8] (BaF3 cells), above 5 µM; in data set [10], 31 nM.

(Values after ChEMBL document CHEMBL5131515, “Identification of Pyridinyltriazine Derivatives as Potent panFGFR Inhibitors against Gatekeeper Mutants for Overcoming Drug Resistance” (J Med Chem, 2022).)
